Reference: paper PMC6544242, “Development and validation of a multiplex UHPLC-MS/MS method for the determination of the investigational antibiotic against multi-resistant tuberculosis macozinone (PBTZ169) and five active metabolites in human plasma” (PLoS ONE, 2019)
Like-named read-outs stand apart in the source and are kept apart here.

Columns and labels:
[1] = for % from t0: processed extract sample, 24h
[2] = 24 h
[3] = human
[4] = human, 6 h
[5] = tested on: Mycobacterium tuberculosis; conditions: in vitro, Mycobacterium tuberculosis; cited from earlier work
[6] = tested on: bacteria (general anti-bacterial activity); design: method as in PMID 24500695; conditions: cited from earlier work
[7] = tested on: Mycobacterium tuberculosis; design: method as in PMID 20086151, PMID 22926573, PMID 25987624, PMID 30126954; conditions: preclinical models; cited from earlier work

Q: What does the source list for `O=c1nc(N2CCN(CC3CCCCC3)CC2)sc2c([N+](=O)[O-])cc(C(F)(F)F)cc12` [PBTZ169, macozinone]?
A: change in processed samples ([1]; after 24h at RT, medium level): -30%; % from t0 ([1]; 4°C, level H (QC 1500 ng/mL)): -15%; % from t0 ([1]; 4°C, level L (QC 2 ng/mL)): 5%; % from t0 ([1]; 4°C, level M (QC 150 ng/mL)): -7%; % from t0 ([1]; RT, level H (QC 1500 ng/mL)): -8%; % from t0 ([1]; RT, level L (QC 2 ng/mL)): -3%; % from t0 ([1]; RT, level M (QC 150 ng/mL)): 2%; time stable in citrated human plasma [2]: at least 24 h; % from t0 ([3]; 1 h, 10 ng/mL): 1%; % from t0 ([3]; 1 h, 20 ng/mL): 2%; % from t0 ([3]; 1 h, 50 ng/mL): -1%; % from t0 ([3]; 1 h, 100 ng/mL): 3%; % from t0 ([3]; 1 h, 200 ng/mL): 1%; % from t0 ([3]; 1 h, 500 ng/mL): 0%; % from t0 ([3]; 2 h, 10 ng/mL): 0%; % from t0 ([3]; 2 h, 20 ng/mL): 2%; % from t0 ([3]; 2 h, 50 ng/mL): -3%; % from t0 ([3]; 2 h, 100 ng/mL): -1%; % from t0 ([3]; 2 h, 200 ng/mL): -3%; % from t0 ([3]; 2 h, 500 ng/mL): -4%; % from t0 ([3]; 4 h, 10 ng/mL): -1%; % from t0 ([3]; 4 h, 20 ng/mL): -1%; % from t0 ([3]; 4 h, 50 ng/mL): -7%; % from t0 ([3]; 4 h, 100 ng/mL): 0%; % from t0 ([3]; 4 h, 200 ng/mL): -2%; % from t0 ([3]; 4 h, 500 ng/mL): -3%; % from freshly processed samples (n=2) ([4]; 0.1 ng/mL): 19%; % from freshly processed samples (n=2) ([4]; 0.2 ng/mL): 11%; % from freshly processed samples (n=2) ([4]; 0.5 ng/mL): -12%; % from freshly processed samples (n=2) ([4]; 1 ng/mL): -4%; % from freshly prepared samples ([4]; 2 ng/mL): 5%; % from freshly processed samples (n=2) ([4]; 2 ng/mL): -3%; % from freshly processed samples (n=2) ([4]; 50 ng/mL): 7%; % from freshly prepared samples ([4]; 150 ng/mL): -3%; % from freshly processed samples (n=2) ([4]; 500 ng/mL): -4%; % from freshly processed samples (n=2) ([4]; 1000 ng/mL): -10%; % from freshly prepared samples ([4]; 1500 ng/mL): -7%; % from freshly processed samples (n=2) ([4]; 2000 ng/mL): -1%; minimum inhibitory concentration (MIC) [5]: below 0.0005 μg/mL; general anti-bacterial activity [6]: no general anti-bacterial activity; effect in combination with clofazimine or bedaquiline [7]: synergistic effect; effect in combination with isoniazide, moxifloxacin, rifampicin [7]: additive effect
